{"source": "patent US20160158200A1", "about": "“Combinations of Hepatitis C Virus Inhibitors” (priority 2013, published 2016)", "key": {"[1]": {"tested_on": "HCV genotype 1a Y93H variant with tyrosine 93 changed to histidine in the NS5A protein", "test": "microbe, parasite or virus in culture", "format": "cell-based", "settings": "for Fold-Synergistic G-1a (Y93H): genotype 1a Y93H replicon, test compound titrated with compound N47 fixed at 200 nM versus singly; for EC50: Hepatitis C virus", "in_short": "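In an HCV genotype 1a replicon cell-based assay carrying the NS5A Y93H substitution, BMS-790052 was tested alone and in combination with a fixed amount of a second test compound. The combinations were examined for synergistic activity.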"}, "[2]": {"tested_on": "HCV genotype 1a L31V variant with leucine 31 changed to valine in the NS5A protein", "test": "microbe, parasite or virus in culture", "format": "cell-based", "settings": "for Fold-Synergistic G-1a (L31V): genotype 1a L31V replicon, test compound titrated with compound N47 fixed at 200 nM versus singly; for EC50: Hepatitis C virus"}, "[3]": {"tested_on": "HCV genotype-1a variant with glutamine 30 changed to glutamate in the NS5A protein", "settings": "cited from earlier work"}, "[4]": {"tested_on": "HCV genotype-1a variant with glutamine 30 changed to glutamate in the NS5A protein", "format": "cell-based", "settings": "test compound titrated with BMS-790052 fixed at 200 nM; genotype 1a Q30E replicon", "in_short": "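Synergy was assessed by combining several fixed amounts of an NS5A-targeting compound with a titration of the second compound of interest.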"}, "[5]": {"settings": "compound alone, genotype 1a Q30E replicon, read-out: EC50, titrated singly"}, "[6]": {"settings": "read-out: EC50, titrated singly"}, "[7]": {"settings": "read-out: EC50 in combination with compound N47"}}, "note": "Read-outs that look alike come from different tables or passages of the source.", "data": [{"smiles": "CN(C)[C@@H](C(=O)N1CCC[C@H]1c1ncc(-c2ccc(-c3ccc(-c4ccc(-c5cnc([C@@H]6CCCN6C(=O)[C@@H](c6ccccc6)N(C)C)[nH]5)cc4)cc3)cc2)[nH]1)c1ccccc1", "values": [{"measurement": "Fold-Synergistic G-1a (Y93H)", "setting": "[1]", "value": "<10", "unit": "fold"}, {"measurement": "Fold-Synergistic G-1a (L31V)", "setting": "[2]", "value": "<10", "unit": "fold"}]}, {"smiles": "COC(=O)N[C@@H](C(=O)N1CCC[C@H]1c1ncc(-c2ccc(-c3ncc(-c4cnc([C@@H]5CCCN5C(=O)[C@H](NC(=O)OC)c5ccccc5)[nH]4)cn3)cc2)[nH]1)c1ccccc1", "values": [{"measurement": "Fold-Synergistic G-1a (Y93H)", "setting": "[1]", "value": "<10", "unit": "fold"}, {"measurement": "Fold-Synergistic G-1a (L31V)", "setting": "[2]", "value": "<10", "unit": "fold"}]}, {"smiles": "C[C@H](NC(=O)[C@@H](c1ccccc1)N(C)C)c1ncc(-c2ccc(-c3ccc(-c4cnc([C@@H]5CCCN5C(=O)[C@@H](c5ccccc5)N(C)C)[nH]4)cn3)cc2)[nH]1", "values": [{"measurement": "Fold-Synergistic G-1a (Y93H)", "setting": "[1]", "value": "<10", "unit": "fold"}, {"measurement": "Fold-Synergistic G-1a (L31V)", "setting": "[2]", "value": "<10", "unit": "fold"}]}, {"smiles": "CN(C)[C@@H](C(=O)N1CCCC[C@H]1c1ncc(-c2ccc(-c3ccc(-c4cnc([C@@H]5CCCCN5C(=O)[C@@H](c5ccccc5)N(C)C)[nH]4)cc3)cc2)[nH]1)c1ccccc1", "values": [{"measurement": "Fold-Synergistic G-1a (Y93H)", "setting": "[1]", "value": ">10", "unit": "fold"}, {"measurement": "Fold-Synergistic G-1a (L31V)", "setting": "[2]", "value": "<10", "unit": "fold"}]}, {"smiles": "COC(=O)N[C@H](C(=O)N1CCC[C@H]1c1nc(-c2ccc(-c3ccc(-c4c[nH]c([C@@H]5CCCN5C(=O)[C@@H](NC(=O)OC)C(C)C)n4)cc3)cc2)c[nH]1)C(C)C", "note": "[BMS-790052, reference compound]", "values": [{"measurement": "reciprocal synergistic inhibitory effect for the combination", "setting": "[3]; BMS-790052 titrated with P-55 fixed at 200 nM", "value": "~100", "unit": "fold"}, {"measurement": "EC50", "setting": "[3]; [5]", "value": "~200", "unit": "nM"}, {"measurement": "EC50", "setting": "[3]; fixed P-55 at 200 nM, genotype 1a Q30E, read-out: EC50 of BMS-790052 in the presence of P-55", "value": "~2", "unit": "nM"}, {"measurement": "EC50", "setting": "[1]; [6]", "value": "~69", "unit": "nM"}, {"measurement": "EC50", "setting": "[1]; [7]", "value": "< 0.5", "unit": "nM"}, {"measurement": "synergistic inhibitory effect for the combination", "setting": "[1]; titrated with 200 nM compound N47, genotype 1a Y93H", "value": "> 100", "unit": "fold"}, {"measurement": "EC50", "setting": "[2]; [6]", "value": "~56", "unit": "nM"}, {"measurement": "EC50", "setting": "[2]; [7]", "value": "< 0.5", "unit": "nM"}, {"measurement": "synergistic inhibitory effect with the combination", "setting": "[2]; titrated with 200 nM compound N47, genotype 1a L31V", "value": "> 100", "unit": "fold"}]}, {"smiles": "CC(C)CC(=O)N[C@H](c1ncc(-c2ccc(-c3ccc(-c4cnc([C@@H](NC(=O)CC(C)C)C(C)C)[nH]4)cc3)cc2)[nH]1)C(C)C", "note": "[Compound P-55]", "values": [{"measurement": "synergistic inhibitory effect with the combination", "setting": "[3]; P-55 titrated with BMS-790052 fixed at 200 nM", "value": "> 100", "unit": "fold"}, {"measurement": "EC50", "setting": "[3]; [5]", "value": "> 200", "unit": "nM"}, {"measurement": "EC50", "setting": "[3]; fixed BMS-790052 at 200 nM, genotype 1a Q30E, read-out: EC50 of P-55 in the presence of BMS-790052", "value": "~2", "unit": "nM"}, {"measurement": "Fold-Synergistic 1a (Q30E)", "setting": "[4]", "value": ">100", "unit": "fold"}]}, {"smiles": "COC(=O)N[C@H](C(=O)N1C2CC2CC[C@H]1c1ncc(-c2ccc(-c3ccc(-c4cnc([C@@H]5CCC6CC6N5C(=O)[C@@H](NC(=O)OC)C(C)C)[nH]4)cc3)cc2)[nH]1)C(C)C", "note": "(stereo partly shown) [drawing 2291]", "values": [{"measurement": "Fold-Synergistic G-1a (Y93H)", "setting": "[1]", "value": ">100", "unit": "fold"}, {"measurement": "Fold-Synergistic G-1a (L31V)", "setting": "[2]", "value": ">100", "unit": "fold"}]}, {"smiles": "COC(=O)N[C@H](C(=O)N1C2CC2CC[C@H]1c1ncc(-c2ccc(-c3ccc(-c4cnc([C@@H]5CCC6CC6N5C(=O)[C@@H](NC(=O)OC)C(C)C)[nH]4)cc3)cc2)[nH]1)C(C)C", "note": "(stereo partly shown) [drawing 2298]", "values": [{"measurement": "Fold-Synergistic G-1a (Y93H)", "setting": "[1]", "value": ">100", "unit": "fold"}, {"measurement": "Fold-Synergistic G-1a (L31V)", "setting": "[2]", "value": ">100", "unit": "fold"}]}]}
